These results are taken from ChEMBL document CHEMBL4673334, “In Vivo Biological Evaluation of a Synthetic Royleanone Derivative as a Promising Fast-Acting Trypanocidal Agent by Inducing Mitochondrial-Dependent Necrosis” (J Nat Prod, 2020).

Calls of active or inactive are those of the source. The rule behind the calls is not given here.

For experiment [1], the system named is Trypanosoma cruzi. Kind of experiment: Antitrypanosomal activity against Trypanosoma cruzi MHOM/Pe/2011/Arequipa(DTU V) amastigote form infected in BALB/c mouse assessed as reduction in parasite growth at 20 mg/kg, po administered for 5 days starting at 100 days post infection and measured up to 106 days post infection by ELISA assay. Type of experiment: functional, organism-based. Conditions: time 5.0 day. (In general: In an ELISA, binding on a coated surface is turned into a signal by an enzyme label.)

For experiment [2], the system named is Trypanosoma cruzi. Description: Inhibition of Trypanosoma cruzi MHOM/Pe/2011/Arequipa(DTU V) epimastigote form Fe-SOD at 25 uM by UV-VIS spectrophotometric method relative to control.
Experiment [3] relates to Trypanosoma cruzi. Kind of experiment: Inhibition of Trypanosoma cruzi MHOM/Pe/2011/Arequipa(DTU V) epimastigote form Fe-SOD at 12.5 uM by UV-VIS spectrophotometric method relative to control.
In experiment [4] the test system is Trypanosoma cruzi. Kind of experiment: Antitrypanosomal activity against Trypanosoma cruzi MHOM/Pe/2011/Arequipa(DTU V) amastigote form infected in BALB/c mouse assessed as reduction in parasitaemia at 20 mg/kg, po for 5 days starting at 9 days post infection and measured after 13 to 35 days post infection. Format: functional, organism-based. The note with it: time 5.0 day.

The subject of experiment [5] is Trypanosoma cruzi. Kind of experiment: Antitrypanosomal activity against Trypanosoma cruzi MHOM/Pe/2011/Arequipa(DTU V) amastigote form infected in BALB/c mouse assessed as reduction in parasitaemia at 20 mg/kg, po for 5 days starting at 9 days post infection and measured after 7 days post infection relative to control. More on the design: scale not given: the % may be the effect or the level left. Type of experiment: functional. The note with it: time 5 day.

Experiment [6] has as its system Trypanosoma cruzi. Kind of experiment: Antitrypanosomal activity against Trypanosoma cruzi MHOM/Pe/2011/Arequipa(DTU V) amastigote form infected in BALB/c mouse assessed as reduction in parasite growth at 20 mg/kg, po administered for 5 days starting at 9 days post infection and measured up to 106 days post infection by ELISA assay. Format: functional, organism-based. The note with it: time 5.0 day.

Experiment [7] relates to Trypanosoma cruzi. Description: Antitrypanosomal activity against Trypanosoma cruzi MHOM/Pe/2011/Arequipa(DTU V) amastigote form infected in BALB/c mouse assessed as reduction in spleen enlargement at 20 mg/kg, po administered for 5 days starting at 100 days post infection and measured after 145 days post infection. Format: functional, organism-based. Conditions: time 5.0 day.

The subject of experiment [8] is Trypanosoma cruzi. Kind of experiment: Antitrypanosomal activity against Trypanosoma cruzi MHOM/Pe/2011/Arequipa(DTU V) amastigote form infected in BALB/c mouse assessed as reduction in spleen enlargement at 20 mg/kg, po administered for 5 days starting at 9 days post infection and measured after 145 days post infection. Type of experiment: functional, organism-based. The note with it: time 5.0 day.

Take `COC(=O)[C@]1(C)CCC[C@]2(C)C3=C(C=C[C@@H]12)C(=O)C(C(C)C)=CC3=O`: the outcome in the experiment on Trypanosoma cruzi [1], in the experiment with Trypanosoma cruzi [4], in the experiment on Trypanosoma cruzi [6], in the experiment with Trypanosoma cruzi [7] and in the experiment on Trypanosoma cruzi [8] was Active. Further, the results for the inhibition with Trypanosoma cruzi [2] and in the experiment on Trypanosoma cruzi [3] were 100% and 80%, respectively. Besides, the Activity in the experiment with Trypanosoma cruzi [5] is recorded as 65%.

In general, inhibition refers to the relative decrease from the control value, in per cent.
